Measurements as given in US9452225B2, “GLP-1 prodrugs” (Novo Nordisk A/S, priority 2012, dated 2016).
Numbered stars: 1 amine (or outer) side, 2 acyl side, 3 side chain; on linkers, the order of the positions; unused ones are H or OH. Square brackets hold non-standard residues; d marks the D form. Side chains are listed from the residue outwards. Peptide text beside a SMILES is read from it. * marks the point of attachment. Decanoyl(10-(4-HOOC-PhO)) = O=C(O)c1ccc(OCCCCCCCCCC(=O)*)cc1; Lac(3-(imidazol-4-yl)) = O=C(O)[C@@H](O)Cc1c[nH]cn1; γGlu = O=C(O)[C@H](CCC(=O)[*:2])N[*:1]; NMeI = CC[C@H](C)[C@H](NC)C(=O)O; NMeV = CN[C@H](C(=O)O)C(C)C; AEEA = NCCOCCOCC(=O)O

Key:
[1] = Prodrug half-life in vitro, buffer method; type: physicochemical; settings: 25 mM phosphate buffer pH 7.4, 37° C., 1.0 mg/mL; UPLC_A, or UPLC_B for compounds marked *; read-out: T½ in buffer (converted)
Procedure: (§1) The purpose of this example is to test the in vitro half-lives (T½) of the GLP-1 prodrugs of the invention, in comparison to conceptually different prodrugs. In what follows two in vitro methods are described, viz. a method conducted in buffer, and a method conducted in plasma.
Buffer: 25 mM Phosphate (Ionic strength: 154 mM, pH 7.4 at 37° C.)
NaH2PO4.2H2O (1.95 g, 12.5 mmol) and NaCl (2.61 g, 44.7 mmol) were dissolved in millipore water (approximately 450 mL) and adjusted to pH=7.44 at approximately 20° C. with concentrated NaOH and 1 M NaOH. Water was added to 500.00 mL.
The compound to be tested was dissolved in buffer to a concentration of 1.0 mg/mL and incubated at 37° C. Samples were taken at adequate intervals and the % parent drug compared to prodrug formed as function of time was evaluated by the UPLC method as referred to in Table 1 by comparing the areas under the curves for the two corresponding peaks. These UPLC methods are described in the general experimental section above (UPLC_A, and UPLC_B).
(§2) The half life of the prodrug (T½) was calculated from the slope of a linear fit to the curve of ln(% prodrug (Y)) as a function of time (t), as follows: Y=÷αt+k Math. 1 T½=ln(2)/α Math. 2 Plasma Method Buffer: 200 mM Phosphate, pH 7.4 at 37° C.
The resulting half-lives are set out in Table 1 below. For comparison, the T½ in buffer of native GLP-1(7-37) (His7 variant of SEQ ID NO: 1) was 13 minutes (0.2 hours).

[2] = Prodrug half-life in vitro, plasma method (minipig heparin plasma); type: in vitro ADME; settings: minipig heparin plasma 800 μL + 200 μL 200 mM phosphate pH 7.4, 37° C.; UPLC_A, or UPLC_B for compounds marked *; read-out: T½ in plasma (converted)
Procedure: as §1, §2
NaH2PO4.2H2O (15.61 g, 100 mmol) was dissolved in milliQ water (approximately 450 mL) and adjusted to pH=7.44 at approximately 20° C. with concentrated NaOH (aq) and 1 M NaOH (aq). Water was added to 500.00 mL.
Serum: Minipig Serum, Heparin-Plasma
Fresh blood was tapped from minipig into 9 mL LH lithium heparin Vacuette tubes from Greiner bio-one (catalogue number 455084). After cooling on ice it was centrifuged (10 min, 4° C., 3000 rpm/1942G) and the supernatant isolated and kept at −18° C. before use.
100 nmol of the compound to be tested was dissolved in 200 μL buffer, added to 800 μL plasma (centrifuged), and incubated at 37° C. Samples (50 μL) were drawn at appropriate intervals into 150 μL absolute EtOH. After a short stirring the sample was centrifuged and the supernatant transferred to the UPLC vial (10 μL injection).
The % parent drug compared to prodrug formed as a function of time was evaluated by UPLC, and the half-life calculated, both in the same way as described above under the Buffer method.

| Structure (SMILES) | half-life at 1 mg/mL [1] | half-life [2] | half-life [1] |
| --- | --- | --- | --- |
| CC[C@H](C)[C@H](N)C(=O)N[C@H](C(=O)O[C@@H](Cc1c[nH]cn1)C(=O)N[C@@H](C)C(=O)N[C@@H](CCC(=O)O)C(=O)NCC(=O)N[C@H](C(=O)N[C@@H](Cc1ccccc1)C(=O)N[C@H](C(=O)N[C@@H](CO)C(=O)N[C@@H](CC(=O)O)C(=O)N[C@H](C(=O)N[C@@H](CO)C(=O)N[C@@H](CCCCNC(=O)COCCOCCNC(=O)COCCOCCNC(=O)CC[C@H](NC(=O)CCCCCCCCCOc1ccc(C(=O)O)cc1)C(=O)O)C(=O)N[C@@H](Cc1ccc(O)cc1)C(=O)N[C@@H](CC(C)C)C(=O)N[C@@H](CCC(=O)O)C(=O)N[C@@H](CCC(=O)O)C(=O)N[C@@H](CCC(N)=O)C(=O)N[C@@H](C)C(=O)N[C@H](C(=O)N[C@@H](CCCNC(=N)N)C(=O)N[C@@H](CCC(=O)O)C(=O)N[C@@H](Cc1ccccc1)C(=O)N[C@H](C(=O)N[C@@H](C)C(=O)N[C@@H](CCCCNC(=O)COCCOCCNC(=O)COCCOCCNC(=O)CC[C@H](NC(=O)CCCCCCCCCOc1ccc(C(=O)O)cc1)C(=O)O)C(=O)N[C@@H](CC(C)C)C(=O)N[C@H](C(=O)N[C@@H](CCCNC(=N)N)C(=O)NCC(=O)N[C@@H](CCCNC(=N)N)C(=O)NCC(=O)O)C(C)C)[C@@H](C)CC)C(C)C)C(C)C)[C@@H](C)O)[C@@H](C)O)C(C)C [Example 3a] (H-IV[Lac(3-(imidazol-4-yl))]AEGTFTSDVSK([AEEA-AEEA-γGlu-Decanoyl(10-(4-HOOC-PhO))])YLEEQAVREFIAK([AEEA-AEEA-γGlu-Decanoyl(10-(4-HOOC-PhO))])LVRGRG-OH) | 7.5 h | 5 h | – |
| CC[C@H](C)[C@H](NC(=O)[C@H](Cc1ccccc1)NC(=O)[C@H](CCC(=O)O)NC(=O)[C@H](CCCNC(=N)N)NC(=O)[C@@H](NC(=O)[C@H](C)NC(=O)[C@H](CCC(N)=O)NC(=O)[C@H](CCC(=O)O)NC(=O)[C@H](CCC(=O)O)NC(=O)[C@H](CC(C)C)NC(=O)[C@H](Cc1ccc(O)cc1)NC(=O)[C@H](CCCCNC(=O)COCCOCCNC(=O)COCCOCCNC(=O)CC[C@H](NC(=O)CCCCCCCCCOc1ccc(C(=O)O)cc1)C(=O)O)NC(=O)[C@H](CO)NC(=O)[C@@H](NC(=O)[C@H](CC(=O)O)NC(=O)[C@H](CO)NC(=O)[C@@H](NC(=O)[C@H](Cc1ccccc1)NC(=O)[C@@H](NC(=O)CNC(=O)[C@H](CCC(=O)O)NC(=O)[C@H](C)NC(=O)[C@H](Cc1c[nH]cn1)OC(=O)[C@@H](NC(=O)[C@@H](NC)C(C)C)C(C)C)[C@@H](C)O)[C@@H](C)O)C(C)C)C(C)C)C(=O)N[C@@H](C)C(=O)N[C@@H](CCCCNC(=O)COCCOCCNC(=O)COCCOCCNC(=O)CC[C@H](NC(=O)CCCCCCCCCOc1ccc(C(=O)O)cc1)C(=O)O)C(=O)N[C@@H](CC(C)C)C(=O)N[C@H](C(=O)N[C@@H](CCCNC(=N)N)C(=O)NCC(=O)N[C@@H](CCCNC(=N)N)C(=O)NCC(=O)O)C(C)C [Example 2] (H-[NMeV]V[Lac(3-(imidazol-4-yl))]AEGTFTSDVSK([AEEA-AEEA-γGlu-Decanoyl(10-(4-HOOC-PhO))])YLEEQAVREFIAK([AEEA-AEEA-γGlu-Decanoyl(10-(4-HOOC-PhO))])LVRGRG-OH) | 42.5 h | 27.5 h | – |
| CC[C@H](C)[C@H](NC)C(=O)N[C@H](C(=O)O[C@@H](Cc1c[nH]cn1)C(=O)N[C@@H](C)C(=O)N[C@@H](CCC(=O)O)C(=O)NCC(=O)N[C@H](C(=O)N[C@@H](Cc1ccccc1)C(=O)N[C@H](C(=O)N[C@@H](CO)C(=O)N[C@@H](CC(=O)O)C(=O)N[C@H](C(=O)N[C@@H](CO)C(=O)N[C@@H](CCCCNC(=O)COCCOCCNC(=O)COCCOCCNC(=O)CC[C@H](NC(=O)CCCCCCCCCOc1ccc(C(=O)O)cc1)C(=O)O)C(=O)N[C@@H](Cc1ccc(O)cc1)C(=O)N[C@@H](CC(C)C)C(=O)N[C@@H](CCC(=O)O)C(=O)N[C@@H](CCC(=O)O)C(=O)N[C@@H](CCC(N)=O)C(=O)N[C@@H](C)C(=O)N[C@H](C(=O)N[C@@H](CCCNC(=N)N)C(=O)N[C@@H](CCC(=O)O)C(=O)N[C@@H](Cc1ccccc1)C(=O)N[C@H](C(=O)N[C@@H](C)C(=O)N[C@@H](CCCCNC(=O)COCCOCCNC(=O)COCCOCCNC(=O)CC[C@H](NC(=O)CCCCCCCCCOc1ccc(C(=O)O)cc1)C(=O)O)C(=O)N[C@@H](CC(C)C)C(=O)N[C@H](C(=O)N[C@@H](CCCNC(=N)N)C(=O)NCC(=O)N[C@@H](CCCNC(=N)N)C(=O)NCC(=O)O)C(C)C)[C@@H](C)CC)C(C)C)C(C)C)[C@@H](C)O)[C@@H](C)O)C(C)C [Example 3] (H-[NMeI]V[Lac(3-(imidazol-4-yl))]AEGTFTSDVSK([AEEA-AEEA-γGlu-Decanoyl(10-(4-HOOC-PhO))])YLEEQAVREFIAK([AEEA-AEEA-γGlu-Decanoyl(10-(4-HOOC-PhO))])LVRGRG-OH) | 38.5 h | 25.6 h | – |
| CC[C@H](C)[C@H](NC)C(=O)N[C@H](C(=O)O[C@@H](Cc1c[nH]cn1)C(=O)N[C@@H](C)C(=O)N[C@@H](CCC(=O)O)C(=O)NCC(=O)N[C@H](C(=O)N[C@@H](Cc1ccccc1)C(=O)N[C@H](C(=O)N[C@@H](CO)C(=O)N[C@@H](CC(=O)O)C(=O)N[C@H](C(=O)N[C@@H](CO)C(=O)N[C@@H](CCCCNC(=O)COCCOCCNC(=O)COCCOCCNC(=O)CC[C@H](NC(=O)CCCCCCCCCOc1ccc(C(=O)O)cc1)C(=O)O)C(=O)N[C@@H](Cc1ccc(O)cc1)C(=O)N[C@@H](CC(C)C)C(=O)N[C@@H](CCC(=O)O)C(=O)N[C@@H](CCC(=O)O)C(=O)N[C@@H](CCC(N)=O)C(=O)N[C@@H](C)C(=O)N[C@@H](C)C(=O)N[C@@H](CCCCNC(=O)COCCOCCNC(=O)COCCOCCNC(=O)CC[C@H](NC(=O)CCCCCCCCCOc1ccc(C(=O)O)cc1)C(=O)O)C(=O)N[C@@H](CCC(=O)O)C(=O)N[C@@H](Cc1ccccc1)C(=O)N[C@H](C(=O)N[C@@H](C)C(=O)N[C@@H](Cc1c[nH]c2ccccc12)C(=O)N[C@@H](CC(C)C)C(=O)N[C@H](C(=O)N[C@@H](CCC(N)=O)C(=O)NCC(=O)N[C@@H](CCCNC(=N)N)C(=O)NCC(=O)O)C(C)C)[C@@H](C)CC)C(C)C)[C@@H](C)O)[C@@H](C)O)C(C)C [Example 5] | – | 32.2 h | 37.9 h |
| CC[C@H](C)[C@H](NC(=O)[C@H](Cc1ccccc1)NC(=O)[C@H](CCC(=O)O)NC(=O)[C@H](CCCNC(=N)N)NC(=O)[C@@H](NC(=O)[C@H](C)NC(=O)[C@H](CCC(N)=O)NC(=O)[C@H](CCC(=O)O)NC(=O)[C@H](CCC(=O)O)NC(=O)[C@H](CC(C)C)NC(=O)[C@H](Cc1ccc(O)cc1)NC(=O)[C@H](CCCCNC(=O)COCCOCCNC(=O)COCCOCCNC(=O)CC[C@H](NC(=O)CCCCCCCCCOc1ccc(C(=O)O)cc1)C(=O)O)NC(=O)[C@H](CO)NC(=O)[C@@H](NC(=O)[C@H](CC(=O)O)NC(=O)[C@H](CO)NC(=O)[C@@H](NC(=O)[C@H](Cc1ccccc1)NC(=O)[C@@H](NC(=O)CNC(=O)[C@H](CCC(=O)O)NC(=O)[C@H](C)NC(=O)[C@H](Cc1c[nH]cn1)OC(=O)[C@@H](NC(=O)[C@@H](N)C(C)C)C(C)C)[C@@H](C)O)[C@@H](C)O)C(C)C)C(C)C)C(=O)N[C@@H](C)C(=O)N[C@@H](CCCCNC(=O)COCCOCCNC(=O)COCCOCCNC(=O)CC[C@H](NC(=O)CCCCCCCCCOc1ccc(C(=O)O)cc1)C(=O)O)C(=O)N[C@@H](CC(C)C)C(=O)N[C@H](C(=O)N[C@@H](CCCNC(=N)N)C(=O)NCC(=O)N[C@@H](CCCNC(=N)N)C(=O)NCC(=O)O)C(C)C [Example 2a] (H-VV[Lac(3-(imidazol-4-yl))]AEGTFTSDVSK([AEEA-AEEA-γGlu-Decanoyl(10-(4-HOOC-PhO))])YLEEQAVREFIAK([AEEA-AEEA-γGlu-Decanoyl(10-(4-HOOC-PhO))])LVRGRG-OH) | 10.5 h | 4.6 h | – |
